Values joined by “and” are separate entries in the source; they are usually repeats but may differ in a detail not shown here. Equal values may be shown once.
What was measured:
[1] = biological target: T1, Sodium channel protein type 9 subunit alpha (Homo sapiens, UniProt Q15858); test: Blockade of human Nav1.7 by voltage ion probe reader based FRET assay
Target sequence in this assay (Q15858 whole entry): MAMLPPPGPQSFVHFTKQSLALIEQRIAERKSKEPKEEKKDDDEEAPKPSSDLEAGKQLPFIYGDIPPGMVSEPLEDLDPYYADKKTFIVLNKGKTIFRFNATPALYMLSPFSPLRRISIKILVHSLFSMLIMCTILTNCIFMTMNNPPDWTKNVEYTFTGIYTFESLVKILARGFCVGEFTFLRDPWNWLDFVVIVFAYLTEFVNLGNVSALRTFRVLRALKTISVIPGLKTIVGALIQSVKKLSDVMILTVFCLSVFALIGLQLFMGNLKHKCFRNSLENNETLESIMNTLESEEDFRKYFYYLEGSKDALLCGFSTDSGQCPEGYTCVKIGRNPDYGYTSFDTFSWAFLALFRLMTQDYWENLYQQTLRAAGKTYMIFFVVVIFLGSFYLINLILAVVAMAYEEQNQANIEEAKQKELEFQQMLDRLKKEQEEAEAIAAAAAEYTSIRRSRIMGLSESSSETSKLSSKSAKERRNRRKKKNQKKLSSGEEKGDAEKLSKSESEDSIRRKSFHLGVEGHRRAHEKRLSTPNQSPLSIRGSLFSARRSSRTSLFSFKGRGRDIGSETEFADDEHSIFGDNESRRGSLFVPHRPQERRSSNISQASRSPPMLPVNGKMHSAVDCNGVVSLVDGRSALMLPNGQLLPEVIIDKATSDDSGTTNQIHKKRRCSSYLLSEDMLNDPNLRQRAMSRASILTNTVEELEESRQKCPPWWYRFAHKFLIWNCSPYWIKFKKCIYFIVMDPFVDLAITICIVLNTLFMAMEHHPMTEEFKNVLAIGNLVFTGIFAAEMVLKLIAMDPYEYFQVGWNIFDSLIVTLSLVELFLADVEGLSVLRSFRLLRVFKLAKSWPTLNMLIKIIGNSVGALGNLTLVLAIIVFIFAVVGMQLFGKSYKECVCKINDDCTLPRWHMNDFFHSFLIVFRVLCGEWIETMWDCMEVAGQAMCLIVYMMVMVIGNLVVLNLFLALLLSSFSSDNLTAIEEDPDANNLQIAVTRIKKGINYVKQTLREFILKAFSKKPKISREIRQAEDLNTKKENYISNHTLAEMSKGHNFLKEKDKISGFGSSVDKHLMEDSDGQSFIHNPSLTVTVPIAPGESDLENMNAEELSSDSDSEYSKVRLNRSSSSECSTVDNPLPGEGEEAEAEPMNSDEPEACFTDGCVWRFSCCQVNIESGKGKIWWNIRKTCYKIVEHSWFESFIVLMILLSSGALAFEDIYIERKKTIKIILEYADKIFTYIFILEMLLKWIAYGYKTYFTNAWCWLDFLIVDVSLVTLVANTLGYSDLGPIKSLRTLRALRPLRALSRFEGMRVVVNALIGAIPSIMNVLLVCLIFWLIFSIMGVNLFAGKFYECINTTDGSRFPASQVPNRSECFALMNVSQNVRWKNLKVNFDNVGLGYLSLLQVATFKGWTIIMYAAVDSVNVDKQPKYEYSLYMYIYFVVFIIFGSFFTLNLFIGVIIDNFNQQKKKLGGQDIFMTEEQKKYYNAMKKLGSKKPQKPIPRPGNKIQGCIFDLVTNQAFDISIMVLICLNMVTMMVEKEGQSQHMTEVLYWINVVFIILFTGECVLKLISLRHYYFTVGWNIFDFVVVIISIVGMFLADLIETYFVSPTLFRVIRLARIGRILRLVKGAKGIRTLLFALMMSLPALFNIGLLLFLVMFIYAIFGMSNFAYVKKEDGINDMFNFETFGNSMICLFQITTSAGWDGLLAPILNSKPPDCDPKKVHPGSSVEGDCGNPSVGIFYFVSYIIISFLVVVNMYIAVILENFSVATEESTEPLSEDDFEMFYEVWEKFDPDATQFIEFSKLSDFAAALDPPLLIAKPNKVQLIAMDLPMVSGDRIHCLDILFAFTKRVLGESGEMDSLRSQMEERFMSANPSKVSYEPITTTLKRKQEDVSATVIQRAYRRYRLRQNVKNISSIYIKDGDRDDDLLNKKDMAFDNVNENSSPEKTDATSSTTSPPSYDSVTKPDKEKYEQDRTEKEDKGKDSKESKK

[2] = biological target: T1, Sodium channel protein type 9 subunit alpha; test: Blockade of human Nav1.7 at 1 uM by voltage ion probe reader based FRET assay
Target sequence in this assay (Q15858 whole entry, looked up): as the sequence (Q15858 whole entry) above

[3] = biological target: T1, Sodium channel protein type 9 subunit alpha; test: Blockade of human Nav1.7 by electrophysiology assay
Target sequence in this assay (Q15858 whole entry): as above

hERG (KCNH2) = hERG (KCNH2) (Homo sapiens, UniProt Q12809); test: Displacement of radiolabeled MK-0499 from human ERG at 1 uM; conditions: probe radiolabeled MK-0499
hERG (KCNH2), sequence (Q12809 whole entry): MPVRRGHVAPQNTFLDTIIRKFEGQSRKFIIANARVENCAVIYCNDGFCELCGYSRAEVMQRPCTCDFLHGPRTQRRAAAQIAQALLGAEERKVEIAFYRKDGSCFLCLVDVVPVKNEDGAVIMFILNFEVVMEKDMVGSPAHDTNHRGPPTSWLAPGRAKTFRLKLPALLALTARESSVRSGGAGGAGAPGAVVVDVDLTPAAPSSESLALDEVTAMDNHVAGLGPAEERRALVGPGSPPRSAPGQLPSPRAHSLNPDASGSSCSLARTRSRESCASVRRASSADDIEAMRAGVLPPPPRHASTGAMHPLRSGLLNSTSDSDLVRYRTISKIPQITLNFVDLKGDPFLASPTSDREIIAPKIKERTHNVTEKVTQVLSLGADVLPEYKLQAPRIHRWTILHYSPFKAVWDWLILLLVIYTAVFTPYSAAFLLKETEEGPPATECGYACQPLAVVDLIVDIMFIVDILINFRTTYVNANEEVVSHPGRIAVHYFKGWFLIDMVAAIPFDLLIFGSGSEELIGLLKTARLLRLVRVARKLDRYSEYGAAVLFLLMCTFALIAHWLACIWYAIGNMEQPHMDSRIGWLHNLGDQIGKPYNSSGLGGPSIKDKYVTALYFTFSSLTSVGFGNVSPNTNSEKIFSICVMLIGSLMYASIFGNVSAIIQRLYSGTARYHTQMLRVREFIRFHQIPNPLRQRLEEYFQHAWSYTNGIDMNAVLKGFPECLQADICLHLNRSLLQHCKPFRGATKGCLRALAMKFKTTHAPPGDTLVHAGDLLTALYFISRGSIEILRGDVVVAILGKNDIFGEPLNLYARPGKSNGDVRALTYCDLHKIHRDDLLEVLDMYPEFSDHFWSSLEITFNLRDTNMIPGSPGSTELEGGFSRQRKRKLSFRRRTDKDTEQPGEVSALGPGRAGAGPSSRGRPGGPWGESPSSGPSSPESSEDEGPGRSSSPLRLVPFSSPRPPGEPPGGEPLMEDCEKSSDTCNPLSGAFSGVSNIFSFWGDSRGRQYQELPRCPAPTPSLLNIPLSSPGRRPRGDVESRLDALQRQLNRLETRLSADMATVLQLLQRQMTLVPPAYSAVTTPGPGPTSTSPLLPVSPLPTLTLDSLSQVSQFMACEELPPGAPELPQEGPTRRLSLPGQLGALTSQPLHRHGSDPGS

[4] = Half life in rat plasma at 1 to 2 mg/kg; format: ADME, organism-based; design: dose 1-2 mg/kg
Cytochrome P450 3A4 = Cytochrome P450 3A4 (Homo sapiens, UniProt P08684); test: Inhibition of CYP3A4; format: ADME
Cytochrome P450 3A4, sequence (P08684 whole entry): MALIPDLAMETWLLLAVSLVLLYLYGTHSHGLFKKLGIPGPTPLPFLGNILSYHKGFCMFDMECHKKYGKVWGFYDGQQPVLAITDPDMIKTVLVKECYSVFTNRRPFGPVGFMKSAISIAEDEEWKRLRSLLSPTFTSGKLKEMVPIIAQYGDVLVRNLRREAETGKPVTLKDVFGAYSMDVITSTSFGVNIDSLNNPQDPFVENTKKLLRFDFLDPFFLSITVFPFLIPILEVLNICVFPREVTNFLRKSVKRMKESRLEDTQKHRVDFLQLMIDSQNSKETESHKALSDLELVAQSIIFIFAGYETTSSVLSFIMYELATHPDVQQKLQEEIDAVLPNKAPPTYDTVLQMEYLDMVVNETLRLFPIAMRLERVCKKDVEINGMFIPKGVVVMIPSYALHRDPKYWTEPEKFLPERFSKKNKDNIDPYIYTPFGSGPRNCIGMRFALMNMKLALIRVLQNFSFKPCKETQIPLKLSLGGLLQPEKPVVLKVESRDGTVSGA

Cytochrome P450 2C9 = Cytochrome P450 2C9 (Homo sapiens, UniProt P11712); test: Inhibition of CYP2C9; format: ADME
Cytochrome P450 2C9, sequence (P11712 whole entry): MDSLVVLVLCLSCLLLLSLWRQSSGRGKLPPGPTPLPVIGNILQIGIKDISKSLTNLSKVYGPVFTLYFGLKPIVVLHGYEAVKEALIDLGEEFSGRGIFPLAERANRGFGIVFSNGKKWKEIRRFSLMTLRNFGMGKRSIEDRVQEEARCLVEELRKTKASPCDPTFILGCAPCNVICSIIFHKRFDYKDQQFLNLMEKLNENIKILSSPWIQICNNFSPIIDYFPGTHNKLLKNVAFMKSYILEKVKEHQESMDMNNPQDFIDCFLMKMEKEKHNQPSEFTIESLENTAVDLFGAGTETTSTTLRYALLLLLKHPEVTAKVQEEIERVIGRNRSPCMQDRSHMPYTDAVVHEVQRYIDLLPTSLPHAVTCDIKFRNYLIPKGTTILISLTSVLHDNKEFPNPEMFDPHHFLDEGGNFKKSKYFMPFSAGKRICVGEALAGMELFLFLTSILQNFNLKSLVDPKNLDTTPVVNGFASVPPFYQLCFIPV

Cytochrome P450 2D6 = Cytochrome P450 2D6 (Homo sapiens, UniProt P10635); test: Inhibition of CYP2D6; format: ADME
Cytochrome P450 2D6, sequence (P10635 whole entry): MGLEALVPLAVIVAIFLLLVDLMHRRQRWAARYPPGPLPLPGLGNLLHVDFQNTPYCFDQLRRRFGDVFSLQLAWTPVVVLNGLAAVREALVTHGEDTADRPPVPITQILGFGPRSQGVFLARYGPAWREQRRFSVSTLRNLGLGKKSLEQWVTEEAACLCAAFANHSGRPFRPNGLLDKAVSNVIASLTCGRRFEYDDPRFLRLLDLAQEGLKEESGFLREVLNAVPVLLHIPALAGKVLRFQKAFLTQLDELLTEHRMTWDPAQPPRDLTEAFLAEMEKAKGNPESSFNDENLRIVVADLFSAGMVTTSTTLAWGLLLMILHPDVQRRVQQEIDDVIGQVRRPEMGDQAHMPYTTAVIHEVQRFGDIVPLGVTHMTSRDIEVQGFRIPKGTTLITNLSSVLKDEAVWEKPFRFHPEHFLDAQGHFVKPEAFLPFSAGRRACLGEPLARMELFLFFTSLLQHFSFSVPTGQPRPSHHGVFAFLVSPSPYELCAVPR

[5] = Oral bioavailability in rat at 1 to 2 mg/kg; format: ADME, organism-based; conditions: in vivo
[6] = Clearance in rat plasma at 1 to 2 mg/kg; format: ADME, organism-based; design: dose 1-2 mg/kg
[7] = Half life in rat plasma at 1 to 3 mg/kg; format: ADME, organism-based; design: dose 1-3 mg/kg
[8] = Clearance in rat plasma at 1 to 3 mg/kg; format: ADME, organism-based; design: dose 1-3 mg/kg
[9] = Oral bioavailability in rat at 1 to 3 mg/kg; format: ADME, organism-based; conditions: in vivo
[10] = biological target: T1, Sodium channel protein type 9 subunit alpha; test: Binding affinity to human Nav1.7
Target sequence in this assay (Q15858 whole entry): as the sequence (Q15858 whole entry) above

Rattus norvegicus = test: Analgesic activity rat spinal nerve ligation Chung model assessed as reversal of mechanical allodynia at 10 mg/kg, po administered 14 days after surgery measured 2 hrs after postdose; format: functional
[11] = Metabolic stability in human liver S9 microsomes assessed as compound remaining after 1 hr; format: ADME, Microsome; conditions: read-out: INH
[12] = Metabolic stability in dog hepatocytes assessed as compound remaining after 2 hrs; format: ADME, cell-based, Canis lupus familiaris, Hepatocyte; conditions: read-out: INH
[13] = Metabolic stability in dog liver S9 microsomes assessed as compound remaining after 1 hr; format: ADME, Canis lupus familiaris, Microsome; conditions: read-out: INH
[14] = Metabolic stability in rat liver S9 microsomes assessed as compound remaining after 1 hr; format: ADME, Microsome; conditions: read-out: INH

`Cc1nc(-c2cccc(-c3ccccc3OC(F)(F)F)c2)cs1` showed an IC50 [1] of 2.99 µM.

In the case of `CN(C)C(=O)Nc1nc(-c2cccc(-c3ccccc3OC(F)(F)F)c2)cs1`, the inhibition [2] is reported as 6.6%.

With `Cn1cc(-c2cc(-c3ccccc3OC(F)(F)F)ccc2F)nc1C(N)=O` the inhibition [2] was 15%.

With `Cn1cc(-c2ccc(F)c(-c3ccccc3OC(F)(F)F)c2)nc1C(N)=O` the IC50 [1] was 0.49 µM.

`FC(F)(F)c1ccccc1-c1cccc(-c2c[nH]cn2)c1` showed an IC50 [1] of 2.1 µM, an IC50 [3] of 0.15 µM and an inhibition at 1 µM (hERG (KCNH2)) of 75%. The half-life [4] was 37.8 min, the IC50 (Cytochrome P450 3A4) was under 0.05 µM and the IC50 (Cytochrome P450 2C9) was under 0.05 µM. It also gave an IC50 (Cytochrome P450 2D6) of under 0.05 µM, a bioavailability [5] of 71% and a clearance [6] of 32 mL/min/kg.

In the case of `CN(C)C(=O)c1nc(-c2cccc(-c3ccccc3OC(F)(F)F)c2)cs1`, the IC50 [1] is reported as 1.37 µM.

`FC(F)(F)Oc1ccccc1-c1cccc(-c2csc(-c3ccccn3)n2)c1` gave an inhibition [2] of 21%.

For `FC(F)(F)Oc1ccccc1-c1cccc(-c2csc(-c3ncccn3)n2)c1`, the inhibition [2] was 6.3%.

For `OCc1nc(-c2cccc(-c3ccccc3OC(F)(F)F)c2)cs1`, the IC50 [1] was 1.8 µM.

`NC(=O)c1csc(-c2cccc(-c3ccccc3OC(F)(F)F)c2)n1` gave an IC50 [1] of 0.26 µM, an IC50 [3] of 0.05 µM and a half-life [7] of 44.4 min. It also gave an inhibition at 1 µM (hERG (KCNH2)) of 55%, an IC50 (Cytochrome P450 3A4) of over 50 µM and an IC50 (Cytochrome P450 2C9) of 8.79 µM. For the same molecule, the IC50 (Cytochrome P450 2D6) was over 50 µM, the clearance [8] was 112 mL/min/kg and the bioavailability [9] was 22%.

In the case of `N#CCc1nc(-c2cccc(-c3ccccc3OC(F)(F)F)c2)cs1`, the inhibition [2] is reported as 8%.

`NC(=O)c1nc(-c2ccc(-c3ccccc3OC(F)(F)F)cc2)cs1` gave an inhibition [2] of 6.1%.

`FC(F)(F)Oc1ccccc1-c1cccc(-c2csc(-c3ncc[nH]3)n2)c1` gave an IC50 [1] of 0.95 µM.

For `FC(F)(F)Oc1ccccc1-c1cccc(-c2cscn2)c1`, the IC50 [1] was 2.16 µM.

In the case of `NC(=O)c1nc(-c2cccc(-c3ccccc3C(F)(F)F)c2)c[nH]1`, the IC50 [3] is reported as 0.27 µM, the half-life [7] is reported as 30 min and the inhibition at 1 µM (hERG (KCNH2)) is reported as 25%. It also gave an IC50 (Cytochrome P450 3A4) of over 40 µM, an IC50 (Cytochrome P450 2C9) of over 40 µM and an IC50 (Cytochrome P450 2D6) of over 40 µM. It also gave a clearance [8] of 23 mL/min/kg, a bioavailability [9] of 46% and an inhibition [2] of 55%.

`NC(=O)Cc1nc(-c2cccc(-c3ccccc3OC(F)(F)F)c2)cs1` showed an IC50 [1] of 0.62 µM.

`CCOC(=O)c1nc(-c2cccc(-c3ccccc3OC(F)(F)F)c2)c(C)s1` gave an inhibition [2] of 8%.

In the case of `FC(F)(F)c1ccccc1-c1cccc(-c2cocn2)c1`, the IC50 [1] is reported as 5.31 µM.

Work on `NC(=O)c1nc(-c2cccc(-c3ccccc3C(F)(F)F)c2)c(Cl)[nH]1` yielded an IC50 [1] of 2.77 µM.

`FC(F)(F)Oc1ccccc1-c1cccc(-c2csc(-c3cnccn3)n2)c1` gave an IC50 [1] of 1.26 µM.

Molecule `Cc1sc(C(N)=O)nc1-c1cccc(-c2ccccc2OC(F)(F)F)c1` has an IC50 [1] of 0.43 µM.

Work on `Nc1nc(-c2cccc(-c3ccccc3OC(F)(F)F)c2)co1` yielded an inhibition [2] of 37%.

In the case of `Nc1nc(-c2cccc(-c3ccccc3OC(F)(F)F)c2)cs1`, the inhibition [2] is reported as 84%.

Molecule `FC(F)(F)Oc1ccccc1-c1cccc(-c2csc(-c3ncco3)n2)c1` has an inhibition [2] of 27%.

Molecule `NC(=O)N/N=C/c1ccc(Oc2ccc(F)cc2)cc1` has a Ki [10] of 0.36 µM.

With `CS(=O)(=O)Nc1nc(-c2cccc(-c3ccccc3OC(F)(F)F)c2)cs1` the inhibition [2] was 65%.

In the case of `Cc1nc(-c2cccc(-c3ccccc3OC(F)(F)F)c2)co1`, the IC50 [1] is reported as 2.14 µM.

In the case of `NC(=O)c1nc(-c2cccc(-c3ccccc3OC(F)(F)F)c2)cs1`, the inhibition in vivo at 10 mg/kg (Rattus norvegicus) is reported as 61%, the remaining at 1 h [11] is reported as 47% and the IC50 [1] is reported as 230 nM (2×) and 228 nM. For the same molecule, the remaining at 2 h [12] was under 5%, the IC50 [3] was 0.015 µM and the inhibition at 1 µM (hERG (KCNH2)) was 0.5%. It also gave a half-life [4] of 79.8 min, an IC50 (Cytochrome P450 3A4) of 18 µM and an IC50 (Cytochrome P450 2C9) of 16 µM. The remaining at 1 h [13] was 10%, the IC50 (Cytochrome P450 2D6) was 48 µM and the remaining at 1 h [14] was 68%. For the same molecule, the bioavailability [5] was 20% and the clearance [6] was 52 mL/min/kg.

With `O=C1NC(=O)/C(=C/c2cccc(-c3ccccc3OC(F)(F)F)c2)S1` the Ki [10] was 0.02 µM.

With `CC(=O)Nc1nc(-c2cccc(-c3ccccc3OC(F)(F)F)c2)cs1` the inhibition [2] was 5%.

`FC(F)(F)Oc1ccccc1-c1cccc(-c2c[nH]cn2)c1` showed an inhibition [2] of 14%.

Molecule `Cn1cc(-c2cccc(-c3ccccc3C(F)(F)F)c2)nc1C(N)=O` has an IC50 [1] of 1.25 µM.

Work on `FC(F)(F)Oc1ccccc1-c1cccc(-c2cocn2)c1` yielded an IC50 [1] of 1.94 µM.

Molecule `NC(=O)c1nc(-c2cccc(-c3ccccc3OC(F)(F)F)c2)co1` has an IC50 [1] of 2.36 µM.

From ChEMBL document CHEMBL1221361, “Substituted biaryl oxazoles, imidazoles, and thiazoles as sodium channel blockers” (Bioorg Med Chem Lett, 2010)
